# Results as given in patent US10160755B2 (Plexxikon Inc., priority 2015, dated 2018).
# Molecular target: T1, BA/F3-FLT3-ITD + F691L cells (Homo sapiens, UniProt P36888, F691L, cells depend on it, form not given)
# T1 sequence (P36888 1-993 F691L): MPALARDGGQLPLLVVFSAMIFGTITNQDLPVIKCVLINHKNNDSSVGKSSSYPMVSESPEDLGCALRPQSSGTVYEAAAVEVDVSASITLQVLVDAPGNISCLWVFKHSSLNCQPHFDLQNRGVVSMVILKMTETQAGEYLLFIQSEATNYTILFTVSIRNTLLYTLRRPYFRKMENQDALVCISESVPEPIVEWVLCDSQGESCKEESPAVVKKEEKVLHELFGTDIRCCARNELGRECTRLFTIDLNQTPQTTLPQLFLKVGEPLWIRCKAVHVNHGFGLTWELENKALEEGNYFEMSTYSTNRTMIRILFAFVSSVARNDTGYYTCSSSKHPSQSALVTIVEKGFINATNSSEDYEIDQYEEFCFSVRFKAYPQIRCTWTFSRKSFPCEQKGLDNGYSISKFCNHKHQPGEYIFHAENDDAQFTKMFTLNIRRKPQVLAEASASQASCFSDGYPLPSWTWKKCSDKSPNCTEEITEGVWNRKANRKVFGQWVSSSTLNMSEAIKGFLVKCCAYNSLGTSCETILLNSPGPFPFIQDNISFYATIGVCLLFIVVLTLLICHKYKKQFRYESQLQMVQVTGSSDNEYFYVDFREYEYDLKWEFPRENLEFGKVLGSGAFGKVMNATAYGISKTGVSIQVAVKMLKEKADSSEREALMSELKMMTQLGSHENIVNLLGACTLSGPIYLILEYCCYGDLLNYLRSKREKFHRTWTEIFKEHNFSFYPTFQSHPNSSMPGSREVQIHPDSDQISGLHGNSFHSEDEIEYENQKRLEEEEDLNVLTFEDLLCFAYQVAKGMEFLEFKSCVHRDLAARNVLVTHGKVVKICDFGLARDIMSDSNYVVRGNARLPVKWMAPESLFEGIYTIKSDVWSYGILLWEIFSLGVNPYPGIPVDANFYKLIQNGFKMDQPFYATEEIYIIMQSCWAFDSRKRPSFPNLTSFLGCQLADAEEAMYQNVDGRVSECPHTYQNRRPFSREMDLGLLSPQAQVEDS
# Assay: BA/F3-FLT3-ITD + F691L cell proliferation assay (CellTiter-Glo)
# Assay type: cell-based, murine
# Conditions: BaF3 FLT3 ITD/F691L cells; read-out: Cell Activity (IC50 μM) BaF3_FLT3_ITD/F691L
# Procedure, shortened: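 Murine BA/F3 cells transfected with full-length FLT3 carrying ITD plus D835Y or F691L, grown without IL-3 so growth depends on FLT3. Seeded at 1×10^4 cells/well and dosed with 8 points, 10 to 0.0046 μM, 0.2% DMSO, for three days at 37 °C. IC50 from CellTiter-Glo luminescence (ATP content).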
row,SMILES,GI50 [µM]
1,"CCN1CCN(c2cc(-c3cnc4[nH]cc(-c5ccc6ncn(C7CCCNC7)c6c5)c4n3)ccn2)CC1 (stereo not drawn) [P-327, 2-[2-(4-ethylpiperazin-1-yl)-4-pyridyl]-7-[3-(3-piperidyl)benzimidazol-5-yl]-5H-pyrrolo[2,3-b]pyrazine]",0.0001 to 1
2,"Cc1cc(C#Cc2cnc3[nH]cc(-c4ccc5ncn(C6CCCNC6)c5c4)c3n2)cc(C)n1 (stereo not drawn) [P-283, 2-[2-(2,6-dimethyl-4-pyridyl)ethynyl]-7-[3-(3-piperidyl)benzimidazol-5-yl]-5H-pyrrolo[2,3-b]pyrazine]",0.0001 to 1
3,"CCN1CCN(c2cccc(-c3cnc4[nH]cc(-c5ccc6ncn(C7CCCNC7)c6c5)c4n3)c2)CC1 (stereo not drawn) [P-329, 2-[3-(4-ethylpiperazin-1-yl)phenyl]-7-[3-(3-piperidyl)benzimidazol-5-yl]-5H-pyrrolo[2,3-b]pyrazine]",0.0001 to 1
4,"c1cc(N2CCCCC2)ccc1-c1cnc2[nH]cc(-c3ccc4ncn(C5CCCNC5)c4c3)c2n1 (stereo not drawn) [P-346, 7-[3-(3-piperidyl)benzimidazol-5-yl]-2-[4-(1-piperidyl)phenyl]-5H-pyrrolo[2,3-b]pyrazine]",0.0001 to 1
5,"CC(C)(C)n1cnc2ccc(-c3n[nH]c4ncc(-c5cccc(N6CCCS6(=O)=O)c5)cc34)cc21 [P-296, 2-[3-[3-(3-tert-butylbenzimidazol-5-yl)-1H-pyrazolo[3,4-b]pyridin-5-yl]phenyl]-1,2-thiazolidine 1,1-dioxide]",0.0001 to 1
6,"CC(C)(C)n1cnc2ccc(-c3c[nH]c4ncc(-c5ccc(N6CCCS6(=O)=O)cc5)cc34)cc21 [P-320, 2-[4-[3-(3-tert-butylbenzimidazol-5-yl)-1H-pyrrolo[2,3-b]pyridin-5-yl]phenyl]-1,2-thiazolidine 1,1-dioxide]",0.0001 to 1
7,"c1cc(-c2cnc3[nH]cc(-c4ccc5ncn(C6CCCNC6)c5c4)c3n2)cc(N2CCCCC2)n1 (stereo not drawn) [P-339, 7-[3-(3-piperidyl)benzimidazol-5-yl]-2-[2-(1-piperidyl)-4-pyridyl]-5H-pyrrolo[2,3-b]pyrazine]",0.0001 to 1
8,"c1nc(N2CCOCC2)ncc1-c1cnc2[nH]cc(-c3ccc4ncn(C5CCCNC5)c4c3)c2c1 (stereo not drawn) [P-277, 4-[5-[3-[3-(3-piperidyl)benzimidazol-5-yl]-1H-pyrrolo[2,3-b]pyridin-5-yl]pyrimidin-2-yl]morpholine]",0.0001 to 1
9,"c1cc(N2CCOCC2)ncc1-c1cnc2[nH]cc(-c3ccc4ncn(C5CCCNC5)c4c3)c2c1 (stereo not drawn) [P-321, 4-[5-[3-[3-(3-piperidyl)benzimidazol-5-yl]-1H-pyrrolo[2,3-b]pyridin-5-yl]-2-pyridyl]morpholine]",0.0001 to 1
10,"COc1cnc2[nH]cc(-c3ccc4ncn(C5CCCNC5)c4c3)c2c1 (stereo not drawn) [P-079, 5-methoxy-3-[3-(3-piperidyl)benzimidazol-5-yl]-1H-pyrrolo[2,3-b]pyridine]",0.0001 to 1
11,"Cc1ncc(C#Cc2cnc3[nH]cc(-c4ccc5ncn(C6CCCNC6)c5c4)c3n2)cn1 (stereo not drawn) [P-285, 2-[2-(2-methylpyrimidin-5-yl)ethynyl]-7-[3-(3-piperidyl)benzimidazol-5-yl]-5H-pyrrolo[2,3-b]pyrazine]",0.0001 to 1
12,"COc1cc(-c2cnc3[nH]cc(-c4ccc5ncn(C6CCCN(S(C)(=O)=O)C6)c5c4)c3n2)ccn1 (stereo not drawn) [P-281, 2-(2-methoxy-4-pyridyl)-7-[3-(1-methylsulfonyl-3-piperidyl)benzimidazol-5-yl]-5H-pyrrolo[2,3-b]pyrazine]",0.0001 to 1
13,"FC(F)(F)Cn1cc(-c2cnc3[nH]cc(-c4ccc5ncn(C6CCCNC6)c5c4)c3c2)cn1 (stereo not drawn) [P-275, 1-(3-piperidyl)-6-[5-[1-(2,2,2-trifluoroethyl)pyrazol-4-yl]-1H-pyrrolo[2,3-b]pyridin-3-yl]benzimidazole]",0.0001 to 1
14,"Cn1cnc2ccc(-c3c[nH]c4nnc(Cl)cc34)cc21 [P-313, 3-chloro-5-(3-methylbenzimidazol-5-yl)-7H-pyrrolo[2,3-c]pyridazine]",0.0001 to 1

# Next, values leading:
row,GI50 [µM],SMILES
1,0.0001 to 1,"CC(C)(C)n1cnc2ccc(-c3c[nH]c4ncc(-c5cnc(N6CCC(F)(F)CC6)nc5)nc34)cc21 [P-357, 7-(3-tert-butylbenzimidazol-5-yl)-2-[2-(4,4-difluoro-1-piperidyl)pyrimidin-5-yl]-5H-pyrrolo[2,3-b]pyrazine]"
2,0.0001 to 1,"CC(C)(C)n1cnc2ccc(-c3c[nH]c4ncc(-c5cccc(N6CCOCC6)c5)cc34)cc21 [P-316, 4-[3-[3-(3-tert-butylbenzimidazol-5-yl)-1H-pyrrolo[2,3-b]pyridin-5-yl]phenyl]morpholine]"
3,0.0001 to 1,"CC(C)(O)c1ncc(-c2cnc3[nH]cc(-c4ccc5ncn(C(C)(C)C)c5c4)c3n2)cn1 [P-380, 2-[5-[7-(3-tert-butylbenzimidazol-5-yl)-5H-pyrrolo[2,3-b]pyrazin-2-yl]pyrimidin-2-yl]propan-2-ol]"
4,0.0001 to 1,"CCN1CCN(c2cccc(-c3cnc4[nH]cc(-c5ccc6ncn(C(C)(C)C)c6c5)c4n3)c2)CC1 [P-330, 7-(3-tert-butylbenzimidazol-5-yl)-2-[3-(4-ethylpiperazin-1-yl)phenyl]-5H-pyrrolo[2,3-b]pyrazine]"
5,0.0001 to 1,"CCN1CCN(c2ccc(-c3cnc4[nH]cc(-c5ccc6ncn(C(C)(C)C)c6c5)c4n3)cn2)CC1 [P-365, 7-(3-tert-butylbenzimidazol-5-yl)-2-[6-(4-ethylpiperazin-1-yl)-3-pyridyl]-5H-pyrrolo[2,3-b]pyrazine]"
6,0.0001 to 1,"CN1CCN(c2cccc(-c3cnc4[nH]cc(-c5ccc6ncn(C(C)(C)C)c6c5)c4n3)c2)CC1 [P-331, 7-(3-tert-butylbenzimidazol-5-yl)-2-[3-(4-methylpiperazin-1-yl)phenyl]-5H-pyrrolo[2,3-b]pyrazine]"
7,0.0001 to 1,"CC(C)(C)n1cnc2ccc(-c3c[nH]c4ncc(-c5cnc(F)c(F)c5)nc34)cc21 [P-390, 7-(3-tert-butylbenzimidazol-5-yl)-2-(5,6-difluoro-3-pyridyl)-5H-pyrrolo[2,3-b]pyrazine]"
8,0.0001 to 1,"CCN1CCN(c2ccc(-c3cnc4[nH]cc(-c5ccc6ncn(C(C)(C)C)c6c5)c4n3)cc2)CC1 [P-358, 7-(3-tert-butylbenzimidazol-5-yl)-2-[4-(4-ethylpiperazin-1-yl)phenyl]-5H-pyrrolo[2,3-b]pyrazine]"
9,0.0001 to 1,"COc1cc(-c2cnc3[nH]cc(-c4ccc5ncn(C6(C(F)(F)F)CC6)c5c4)c3n2)ccn1 [P-312, 2-(2-methoxy-4-pyridyl)-7-[3-[1-(trifluoromethyl)cyclopropyl]benzimidazol-5-yl]-5H-pyrrolo[2,3-b]pyrazine]"
10,0.0001 to 1,"CC(C)(C)n1cnc2ccc(-c3c[nH]c4ncc(-c5ccc(C#N)nc5)cc34)cc21 [P-290, 5-[3-(3-tert-butylbenzimidazol-5-yl)-1H-pyrrolo[2,3-b]pyridin-5-yl]pyridine-2-carbonitrile]"
